Laboratory results taken from patent US10968217B2, “Tetrahydropyridopyrimidines for the treatment and prophylaxis of hepatitis B virus infection” (Hoffmann-La Roche Inc., priority 2016, dated 2021).

These molecules were tested on HBV DNA (assay: HBV DNA assay (real-time qPCR of extracellular HBV DNA, HepG2.2.15 cells)). Conditions: Hepatitis B virus, 144 h, extracellular HBV DNA in supernatant, six days after treatment, read-out: IC50 (Anti HBV DNA production activity).
Type: cell-based
Experimental: (§1) HepG2.2.15 cells (Acs et al. Proc Natl Acad Sci USA, 84, (1987), 4641-4), a constitutively HBV-expressing cell line were cultured in DMEM+Glutamax-I medium (Invitrogen, Carlsbad, Calif., USA), supplemented with 10% fetal bovine serum (Invitrogen) and G418 (Invitrogen) at a final concentration of 200 mg/L and maintained in 5% CO2 at 37° C.
The assay employs real-time qPCR (TaqMan) to directly measure extracellular HBV DNA copy number in the cell supernatant. HepG2.2.15 cells were plated in 96-well microtiter plates before treatment with complete medium (DMEM, Glutamax, 10% FBS, 1% Penicillin/Streptomycin, 250 μg/mL Genetycin, final DMSO concentration is 1%). Only the interior wells were utilized to reduce “edge effects” observed during cell culture, the exterior wells were filled with complete medium to help minimize sample evaporation. […]
With `COc1ccc(C(=O)N2CCc3nc(-c4ccccn4)ncc3C2C)s1` (stereo not drawn) [Example 58, (5-Methoxy-2-thienyl)-[5-methyl-2-(2-pyridyl)-7,8-dihydro-5H-pyrido[4,3-d]pyrimidin-6-yl]methanone] the IC50 was 41.9 µM.

Each molecule was assayed on HBsAg (assay: HBsAg assay (CLIA of secreted HBsAg in HepG2.2.15 culture supernatant)). Conditions: Hepatitis B virus, HepG2.2.15, read-out: IC50 (HBsAg assay).
Type: cell-based, HBV
Experimental: as §1
HepG2.2.15 cells were seeded in duplicate into white, 96-well plates at 1.5×10^4 cells/well. The cells were treated with a three-fold serial dilution series of the compounds in DMSO. The final DMSO concentration in all wells was 1% and DMSO was used as no drug control.
The HBsAg chemiluminescence immunoassay (CLIA) kit (Autobio Diagnostics Co., Zhengzhou, China, Catalog number: CL0310-2) was used to measure the levels of secreted HBV antigens semi-quantitatively. For the detection 50 μL/well culture supernatant was used and HBsAg was quantified using HBsAg chemiluminescence immunoassay (CLIA) kit (Autobio Diagnostics Co., Zhengzhou, China, Catalog number: CL0310-2), 50 μL of the supernatant was transferred to the CLIA assay plate and 50 μL of enzyme conjugate reagent was added into each well. The plates were sealed and gently agitated for 1 hour at room temperature. The supernatant-enzyme-mixture was discarded and wells were washed 6 times with 300 μL of PBS. The residual liquid was removed by plating the CLIA plate right side down on absorbent tissue paper. 25 μL of substrates A and B were added to each well. Luminance was measured using a luminometer (Mithras LB 940 Multimode Microplate Reader) after 10 minutes incubation. Dose-response curves were generated and the IC50 value was extrapolated by using the E-WorkBook Suite (ID Business Solutions Ltd., Guildford, UK). The IC50 was defined as the compound concentration at which HBsAg secretion was reduced by 50% compared to the no drug control.
In the case of `COc1ccc(C(=O)N2CCc3nc(-c4ccccn4)ncc3C2C)s1` (stereo not drawn) [Example 58, (5-Methoxy-2-thienyl)-[5-methyl-2-(2-pyridyl)-7,8-dihydro-5H-pyrido[4,3-d]pyrimidin-6-yl]methanone], the IC50 is reported as 0.279 µM.
`CC1c2cnc(-c3ccccn3)nc2CCN1C(=O)c1ncc[nH]1` (stereo not drawn) [Example 56, 1H-Imidazol-2-yl-[5-methyl-2-(2-pyridyl)-7,8-dihydro-5H-pyrido[4,3-d]pyrimidin-6-yl]methanone] was tested, and the IC50 was 1.08 µM.
For `O=C(c1ccc(F)c(F)c1)N1CCc2nc(-c3ccccn3)ncc2C1` [Example 10, (3,4-Difluorophenyl)-[2-(2-pyridyl)-7,8-dihydro-5H-pyrido[4,3-d]pyrimidin-6-yl]methanone], the IC50 was 26.2 µM.
For `O=C(c1ccccc1)N1CCc2nc(-c3ccccn3)ncc2C1` [Example 4, Phenyl-[2-(2-pyridyl)-7,8-dihydro-5H-pyrido[4,3-d]pyrimidin-6-yl]methanone], the IC50 was 24.3 µM.
`COc1ccc(C(=O)N2CCc3nc(-c4ccccn4)ncc3C2)cc1OC` [Example 22, (3,4-Dimethoxyphenyl)-[2-(2-pyridyl)-7,8-dihydro-5H-pyrido[4,3-d]pyrimidin-6-yl]methanone] showed an IC50 of 28 µM.
In the case of `Cc1cnc(C(=O)N2CCc3nc(-c4ccccn4)ncc3C2C)s1` (stereo not drawn) [Example 55, [5-Methyl-2-(2-pyridyl)-7,8-dihydro-5H-pyrido[4,3-d]pyrimidin-6-yl]-(5-methylthiazol-2-yl)methanone], the IC50 is reported as 0.223 µM.
With `O=C(c1ccc(O)c(Cl)c1)N1CCc2nc(-c3ccccn3)ncc2C1` [Example 23, (3-chloro-4-hydroxy-phenyl)-[2-(2-pyridyl)-7,8-dihydro-5H-pyrido[4,3-d]pyrimidin-6-yl]methanone] the IC50 was 21.2 µM.
`CC1c2cnc(-c3ccccn3)nc2CCN1C(=O)c1cc2ccccc2s1` (stereo not drawn) [Example 48, Benzothiophen-2-yl-[5-methyl-2-(2-pyridyl)-7,8-dihydro-5H-pyrido[4,3-d]pyrimidin-6-yl]methanone] gave an IC50 of 0.472 µM.
With `COCCCOc1ccc(C(=O)N2CCc3nc(-c4ccccn4)ncc3C2)cc1F` [Example 15, [3-Fluoro-4-(3-methoxypropoxy)phenyl]-[2-(2-pyridyl)-7,8-dihydro-5H-pyrido[4,3-d]pyrimidin-6-yl]methanone] the IC50 was 4.89 µM.
For `COc1cc(OC)cc(C(=O)N2CCc3nc(-c4ccccn4)ncc3C2)c1` [Example 19, (3,5-Dimethoxyphenyl)-[2-(2-pyridyl)-7,8-dihydro-5H-pyrido[4,3-d]pyrimidin-6-yl]methanone], the IC50 was 8.99 µM.
`CC1c2cnc(-c3ccccn3)nc2CCN1C(=O)c1ccc2[nH]ncc2c1` (stereo not drawn) [Example 47, 1H-indazol-5-yl-[5-methyl-2-(2-pyridyl)-7,8-dihydro-5H-pyrido[4,3-d]pyrimidin-6-yl]methanone] gave an IC50 of 2.47 µM.
With `COc1ccc(C(=O)N2CCc3nc(-c4ccccn4)ncc3C2)nc1` [Example 29, (5-Methoxy-2-pyridyl)-[2-(2-pyridyl)-7,8-dihydro-5H-pyrido[4,3-d]pyrimidin-6-yl]methanone] the IC50 was 34.2 µM.
`Cc1ccc(C(=O)N2CCc3nc(-c4ccccn4)ncc3C2)cn1` [Example 31, (6-Methyl-3-pyridyl)-[2-(2-pyridyl)-7,8-dihydro-5H-pyrido[4,3-d]pyrimidin-6-yl]methanone] gave an IC50 of 31.9 µM.
`CC1c2cnc(-c3ncccn3)nc2CCN1C(=O)c1n[nH]c2ccccc12` (stereo not drawn) [Example 63, 1H-indazol-3-yl-(5-methyl-2-pyrimidin-2-yl-7,8-dihydro-5H-pyrido[4,3-d]pyrimidin-6-yl)methanone] showed an IC50 of 0.45 µM.
